# Data reported in US7622438B1, “Protein formulation for promoting hard tissue formation” (Acologix, Inc., priority 2005, dated 2009).
# Entries after “also recorded” stand apart in the source; their conditions may differ.
# Tests used:
# [1] = tested on: primary osteoblasts collected from fetal mouse calvaria; test: Alkaline phosphatase (ALP) activity in primary osteoblasts under suboptimal BMP-2; assay type: cell-based
# Description: The peptide of SEQ ID No. 8 was added to this culture system at 0, 0.2, 0.4, 1.0, 2.0, and 4.0 μM. The levels of ALP were evaluated on days 0, 3, and 7.
# [2] = tested on: COX-2; test: Gene expression microarray analysis in Clonetics hMSC cells (COX-2 mRNA); assay type: cell-based, human; settings: for COX-2 mRNA increase: 1000 ng/ml peptide
# Description: Materials and Methods: The effect of the peptide of SEQ ID No. 8 treatment on gene expression was assessed in the Clonetics hMSC cells using gene expression microarray analysis as previously described (Locklin et al., 2001). Briefly, cells were plated in five T-150 vented flasks at a density of 1.0×10^6 cells per flask in growth medium and cultured at 37° C. for 48 hours. Flasks containing either vehicle alone or the peptide of SEQ ID No. 8 (1000 ng/ml) were cultured for 24 hr or for 48 h in standard differentiation medium. At each time point, the vehicle and treatment flasks were trypsinized, cells removed and total RNA was extracted for analysis via the Qiagen Rneasy Kit (Qiagen). 8 μg of total RNA were amplified and biotin labeled. The mixture was hybridized to a U95A human gene expression microarray (Affymetrix) containing probes for 12,600 human genes. The chips were then washed, stained with phycoerythrin-streptavidin and read with an Affymetrix scanner. Hybridization intensity values to mRNA frequency were calculated in molecules per million. Analysis of intensity values was conducted using Spotfire Decision Site (Somerville, Mass.) software.
# [3] = tested on: MC3T3-E1 subclone 4 cells; test: BMP-2 stimulated PGE2 production by MC3T3 cells (ELISA); assay type: cell-based, mouse; settings: suboptimal rhBMP-2 plus varying doses of peptide, 24 hours; FIG. 2
# Description: Methods: MC3T3-E1 subclone 4 cells are neonatal mouse derived calvarial preosteoblasts with fibroblast morphology. […] For this experiment the MC3T3 cells were plated 10^5 cells per well in 24 well plates in growth medium (alpha MEM+1 mM sodium pyruvate+10% fetal bovine serum (FBS)). After 24 hours of culture the media was removed and replaced with assay media (alphaMEM+1 mM sodium pyruvate+2% FBS) containing the test substances. Each test group utilized 4 wells. After incubation for a further 24 hours the media was removed and the levels of PGE2 were determined using an ELISA (R&D Systems).
# [4] = tested on: Smad1/5/8; test: Phosphorylation of Smad1/5/8 by Western blotting in primary osteoblasts; assay type: cell-based, mouse; settings: 2 uM peptide added to 25 ng/mL BMP-2; FIG. 3
# Description: Phosphorylation of Smad1/5/8 was evaluated by Western blotting at 0, 0.5, 1, 2, 12, 24, 48 and 72 hours.
# [5] = tested on: hemi-calvariae from 4 day old Swiss Webster mice; test: Mouse calvaria organ culture assay (PGE2, new bone formation histology); assay type: cell-based; settings: peptide 1, 10, 100 μg/mL daily for seven days
# Source text: Methods: Calvarial organ cultures have been used for many years to study the regulation of bone formation and bone resorption. An advantage of this method compared to in vivo studies is the absence of confounding effects (such as hormonal and mechanical influences) meaning a more direct effect of the test substances on bone tissue can be determined. Also compared to isolated cell systems, interrelationships between the different cell types in the bone and between these cells and the bone matrix are preserved.
# Briefly, hemi-calvariae were isolated from 4 day old Swiss Webster mice and incubated in media on steel mesh grids. The peptide of SEQ ID NO. […] Samples of the conditioned media were collected daily for analysis of PGE2 concentration (R&D Systems ELISA kit). At the end of the culture the bones were analyzed for new bone formation and number of osteoblasts using histology.
# [6] = tested on: dorsal muscle of mice (ICR); test: Ectopic bone formation from polymer pellets implanted in mouse dorsal muscle; assay type: in vivo
# Source text: The mice were sacrificed 3 weeks later and the newly formed bones were isolated for evaluation using soft X-ray radiograph and bone mineral density determination.
# [7] = tested on: human mesenchymal cells; test: PGE2 in human mesenchymal cells in culture; assay type: cell-based; settings: peptide alone
# [8] = tested on: hard tissue forming cells; test: General activity statements on hard tissue forming cells
# [9] = tested on: COX-2; settings: Nagel et al., Journal of Cellular Biochemistry, 2004; cited from earlier work
# [10] = tested on: hemi-calvariae from 4 day old Swiss Webster mice; settings: Middleton-Hardie et al., ASBMR 2005; cited from earlier work
# [11] = 2 μM peptide with 25 ng/mL BMP-2
sequence,measurement,setting,value
TDLQERGDNDISPFSGDGQPFKD [SEQ ID No. 8],ALP activity increase as compared with BMP-2 treated cells without addition of the peptide,[1]; [11],~2 times
same,ALP activity increase as compared with the control group,[1]; [11],about 3 times
same,ALP activity in osteoblastic cells,"[1]; BMP-2 (suboptimal, 25 ng/mL) plus peptide 0.2-4.0 μM, FIG. 1",significantly increased; also recorded: dose dependent upregulation
same,COX-2 mRNA increase,[2]; 24 h,3.6 fold
same,COX-2 mRNA increase,[2]; 48 h,2.2 fold
same,"mRNA for cyclooxygenase-2 (COX-2) increase, summary",[2]; discussion summary of both time points,~3 fold
same,BMP-2 induced PGE2 production,[3],increases; also recorded: dose dependent production
same,time over which phosphorylation of Smad1/5/8 was detectable,[4],0.5 to 48 h
same,PGE2 production,[5]; FIG. 4,significant increases
same,bone cell density,[5]; FIG. 5,significant increases
same,new bone formation,[5]; FIG. 5,significant increases
same,osteoblast surface,[5]; FIG. 5,significant increases
same,enhancement of the BMP-2 effects on bone formation (size and mineral density of ectopic ossicles),"[6]; 3 ug BMP-2 in 30 mg polymer, peptide 0-1250 ug, three weeks",significant enhancement
same,efficacy of the peptide on bone formation (size and mineral density of ectopic ossicles),"[6]; 5 ug BMP-2 in 30 mg polymer, peptide 0-1250 ug, three weeks",unclear
same,increase in bone formation,"[6]; peptide added to suboptimal dose, 3 μg of rhBMP-2",significant and dose dependent increase
same,increase in PGE2,[7],did not result in a significant increase
same,"biological activities for the purpose of this invention, relative ranking",[8],highest activities
same,COX-2 in human mesenchymal stem cells,[9],upregulated
same,production of PGE2 in mouse calvaria organ culture assay,[10],dose dependently upregulated
